Details: fluorescence intensity over time

With `CC1(C)C(/C=C/C=C/C=C/C=C2\N(CCCCS(=O)(=O)O)c3ccc4ccccc4c3C2(C)C)=[N+](CCCCS(=O)(=O)[O-])c2ccc3ccccc3c21` [ICG, indocyanine green] the fluorescence half-life was “about three”.

Source: patent US20200246493A1, “DRUG-IODINATED OIL DISPERSION, METHOD FOR PREPARING SAME AND ITS APPLICATION IN EMBOLIZATION TREATMENT FOR LIVER CANCER” (Xiamen University, priority 2019, published 2020)
